Calls of active or inactive are those of the source.
Experiments:
[1] = Luminescence Cell-Based Dose Confirmation HTS to Identify Activators of 5'UTR Stem-Loop Driven Alpha-Synuclein mRNA Translation in H4 Neuroglioblastoma Cells. [Related pubchem assays: 1829 (Project Summary), 1814 (Primary HTS)]; assay type: functional
[2] = Luminescence Cell-Based Dose Response HTS to Identify Activators of Luciferase Translation or Activity in H4 […] Cells. [Related pubchem assays: 1829 (Project Summary), 1814 (Primary HTS)]; assay type: functional
H4 = assay: Luminescence Cell-Based Dose Response HTS to Identify Activators of 5'UTR Stem-Loop Driven Prion Protein mRNA Translation in H4 Neuroglioblastoma Cells. [Related pubchem assays: 1829 (Project Summary), 1814 (Primary HTS)]; assay type: functional; details: Homo sapiens
Cytochrome P450 2C19 = Cytochrome P450 2C19 (Homo sapiens, UniProt P33261); assay: Cytochrome panel assay with activity outcomes. Panel member name: p450-cyp2c19 Compounds with AC50 equal or less than 10 uM are considered active; assay type: functional
Cytochrome P450 2C19, sequence (P33261 whole entry): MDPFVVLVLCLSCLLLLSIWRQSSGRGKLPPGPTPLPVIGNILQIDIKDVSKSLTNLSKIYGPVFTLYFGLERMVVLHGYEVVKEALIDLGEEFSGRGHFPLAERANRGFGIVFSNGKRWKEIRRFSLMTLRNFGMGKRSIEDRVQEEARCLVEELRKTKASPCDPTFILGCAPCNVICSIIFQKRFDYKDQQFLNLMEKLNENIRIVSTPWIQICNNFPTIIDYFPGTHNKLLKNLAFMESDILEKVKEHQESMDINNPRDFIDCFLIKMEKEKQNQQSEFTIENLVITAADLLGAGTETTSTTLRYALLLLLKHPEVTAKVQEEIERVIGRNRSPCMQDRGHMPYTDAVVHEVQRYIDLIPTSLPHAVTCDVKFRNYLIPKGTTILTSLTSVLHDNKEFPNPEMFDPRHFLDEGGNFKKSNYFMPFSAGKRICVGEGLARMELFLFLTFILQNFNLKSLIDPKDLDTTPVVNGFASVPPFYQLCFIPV

Cytochrome P450 3A4 = Cytochrome P450 3A4 (Homo sapiens, UniProt P08684);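 note: CYP3A4 tested as one member of a cytochrome P450 panel screen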
Cytochrome P450 3A4, sequence (P08684 whole entry): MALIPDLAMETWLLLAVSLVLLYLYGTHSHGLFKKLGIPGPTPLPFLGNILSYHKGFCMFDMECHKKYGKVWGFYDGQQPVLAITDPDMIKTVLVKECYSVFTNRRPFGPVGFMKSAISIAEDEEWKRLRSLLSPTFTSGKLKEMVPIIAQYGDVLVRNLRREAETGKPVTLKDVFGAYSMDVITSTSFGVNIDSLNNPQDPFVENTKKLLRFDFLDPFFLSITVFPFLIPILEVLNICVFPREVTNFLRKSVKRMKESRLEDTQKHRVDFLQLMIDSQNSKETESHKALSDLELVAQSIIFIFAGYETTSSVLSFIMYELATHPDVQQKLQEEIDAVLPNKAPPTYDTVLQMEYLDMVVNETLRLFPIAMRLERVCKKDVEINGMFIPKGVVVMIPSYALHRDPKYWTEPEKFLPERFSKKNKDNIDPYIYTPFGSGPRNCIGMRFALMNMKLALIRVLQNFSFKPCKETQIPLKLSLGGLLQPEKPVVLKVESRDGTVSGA

[3] = target: T1, Corticotropin-releasing factor receptor 2/Corticotropin-releasing factor-binding protein (Homo sapiens, UniProt P24387+Q13324); assay: Dose Response confirmation of uHTS hits for small molecule antagonists of the CRF-binding protein and CRF-R2 receptor complex.; assay type: functional; details: read-out: IC50_Mean
T1 sequence (Q13324 whole entry): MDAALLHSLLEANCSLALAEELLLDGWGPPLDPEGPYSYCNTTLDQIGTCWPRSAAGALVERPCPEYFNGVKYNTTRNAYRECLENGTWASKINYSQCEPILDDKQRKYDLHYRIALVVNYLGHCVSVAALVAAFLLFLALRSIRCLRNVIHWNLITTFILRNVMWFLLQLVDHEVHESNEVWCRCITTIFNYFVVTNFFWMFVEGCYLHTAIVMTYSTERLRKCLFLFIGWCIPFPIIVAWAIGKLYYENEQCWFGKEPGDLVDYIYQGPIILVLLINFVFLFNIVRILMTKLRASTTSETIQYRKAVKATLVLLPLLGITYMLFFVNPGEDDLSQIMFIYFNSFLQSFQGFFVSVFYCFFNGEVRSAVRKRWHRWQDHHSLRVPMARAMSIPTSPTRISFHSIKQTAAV
T1 sequence (P24387 whole entry): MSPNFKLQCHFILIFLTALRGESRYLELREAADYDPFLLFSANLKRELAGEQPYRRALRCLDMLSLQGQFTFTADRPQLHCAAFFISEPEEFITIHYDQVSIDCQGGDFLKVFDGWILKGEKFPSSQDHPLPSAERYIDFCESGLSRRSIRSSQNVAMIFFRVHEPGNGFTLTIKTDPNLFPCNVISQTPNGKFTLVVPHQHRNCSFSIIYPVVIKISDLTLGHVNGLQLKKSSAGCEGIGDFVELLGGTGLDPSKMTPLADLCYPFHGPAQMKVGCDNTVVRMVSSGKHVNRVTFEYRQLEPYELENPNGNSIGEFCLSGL

[4] = target: T1, Corticotropin-releasing factor receptor 2/Corticotropin-releasing factor-binding protein; assay: activators of CRF receptor 2 with binding protein – uHTS hits, confirmation (AID 602473); assay type: functional; details: read-out: EC50_Mean
cells [5] = assay type: functional, cell-based
cells [6] = assay type: functional, cell-based; remark: listed apart in the source
Cytochrome P450 2D6 = Cytochrome P450 2D6 (Homo sapiens, UniProt P10635);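 note: CYP2D6 member of a cytochrome P450 panel assay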
Cytochrome P450 2D6, sequence (P10635 whole entry): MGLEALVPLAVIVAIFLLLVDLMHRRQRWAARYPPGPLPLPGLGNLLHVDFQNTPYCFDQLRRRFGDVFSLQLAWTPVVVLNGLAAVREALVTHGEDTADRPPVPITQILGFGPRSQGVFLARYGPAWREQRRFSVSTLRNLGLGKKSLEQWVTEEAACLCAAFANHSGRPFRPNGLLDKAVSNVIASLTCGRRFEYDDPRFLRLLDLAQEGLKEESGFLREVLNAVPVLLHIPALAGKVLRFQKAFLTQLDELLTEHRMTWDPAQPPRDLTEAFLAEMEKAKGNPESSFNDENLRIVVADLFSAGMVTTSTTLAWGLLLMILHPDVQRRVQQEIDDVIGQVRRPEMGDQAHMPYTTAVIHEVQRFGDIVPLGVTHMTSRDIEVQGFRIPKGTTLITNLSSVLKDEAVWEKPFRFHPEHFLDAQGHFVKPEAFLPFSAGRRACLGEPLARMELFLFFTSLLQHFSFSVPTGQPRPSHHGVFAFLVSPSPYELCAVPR

Cytochrome P450 1A2 = target: T2, Cytochrome P450 1A2 (Homo sapiens, UniProt P05177);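 note: PubChem cytochrome P450 panel assay, CYP1A2 panel member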
T2 sequence (P05177 whole entry): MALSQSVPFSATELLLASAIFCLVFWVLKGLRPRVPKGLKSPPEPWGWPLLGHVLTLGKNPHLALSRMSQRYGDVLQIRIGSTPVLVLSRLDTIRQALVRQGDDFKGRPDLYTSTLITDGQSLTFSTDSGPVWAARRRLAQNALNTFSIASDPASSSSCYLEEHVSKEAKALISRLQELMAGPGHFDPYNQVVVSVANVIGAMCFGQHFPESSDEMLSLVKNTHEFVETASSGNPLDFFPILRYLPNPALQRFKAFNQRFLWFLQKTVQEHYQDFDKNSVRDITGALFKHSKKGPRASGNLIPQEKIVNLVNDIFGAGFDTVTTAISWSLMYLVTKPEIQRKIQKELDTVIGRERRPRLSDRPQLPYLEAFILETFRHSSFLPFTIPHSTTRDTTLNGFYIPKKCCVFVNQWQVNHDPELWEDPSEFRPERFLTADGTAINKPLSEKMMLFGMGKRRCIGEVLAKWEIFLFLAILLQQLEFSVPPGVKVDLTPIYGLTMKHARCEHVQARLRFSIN

Cytochrome P450 2C9 = Cytochrome P450 2C9 (Homo sapiens, UniProt P11712)
Cytochrome P450 2C9, sequence (P11712 whole entry): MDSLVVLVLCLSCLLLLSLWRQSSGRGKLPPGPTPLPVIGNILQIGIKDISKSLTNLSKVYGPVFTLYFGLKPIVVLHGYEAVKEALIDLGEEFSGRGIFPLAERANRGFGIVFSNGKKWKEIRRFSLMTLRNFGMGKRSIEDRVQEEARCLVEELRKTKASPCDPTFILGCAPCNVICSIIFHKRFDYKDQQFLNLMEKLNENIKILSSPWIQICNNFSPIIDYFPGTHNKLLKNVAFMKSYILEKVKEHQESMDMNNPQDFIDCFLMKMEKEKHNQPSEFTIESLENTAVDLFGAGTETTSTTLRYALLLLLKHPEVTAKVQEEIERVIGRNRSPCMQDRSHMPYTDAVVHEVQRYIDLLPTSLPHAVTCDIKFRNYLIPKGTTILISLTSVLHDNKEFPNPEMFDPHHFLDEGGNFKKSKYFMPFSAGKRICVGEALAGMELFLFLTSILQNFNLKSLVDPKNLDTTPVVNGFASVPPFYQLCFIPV

INS1 = assay: INS-1E survival protection against cytokine death – cell-based, luminescence, retest, dose response (AID 449756); assay type: functional; details: Rattus norvegicus;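 note: cell death triggered by IL-1 beta plus TNF-alpha plus IFN-gamma mixture; protective hits raise ATP signal compared with cytokine alone wells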
[7] = reduction of Shn3 3'UTR-driven luciferase in osteoblasts – cell-based, Clone20 osteoblasts, firefly luciferase, cherry-picked, dose response (AID 624132); assay type: functional;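 note: firefly luciferase luminescence from reporter carrying the Shn3 3'UTR in osteoblasts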
[8] = loss of viability in HepG2 cells – cell-based, CellTiter-Glo, cherry-picked, cytotoxicity control for Shn3 inhibitor project, dose response (AID 624134); assay type: functional
[9] = non-specific 3'UTR reporter inhibition in Clone20-Shn3RL – cell-based, Renilla luciferase, cherry-picked, counter-screen for Shn3 inhibitor project, dose response (AID 624133); assay type: functional

CC1CCc2c(sc3nc(CSc4n[nH]c(N)n4)nc(O)c23)C1 (configuration not stated)
EC50 [1]: 15.5 µM (active)
EC50 [2]: 27.2 µM (active)
EC50 (H4): 13.2 µM (active)

O=C(CSc1nc(-c2ccc(F)cc2)cs1)N1CCOCC1
EC50 [1]: 10.1 µM (active)
EC50 [2]: 7.79 µM (active)
EC50 (H4): 14.3 µM (active)

O=c1c2ccccc2nc2n1CC/C2=C\c1ccccc1[N+](=O)[O-]
AC50 (Cytochrome P450 2C19; read-out: AC50): 3.98 µM (inconclusive)
AC50 (Cytochrome P450 3A4): 10 µM (inconclusive)

O=C(O)c1cc(S(=O)(=O)N2CCCCC2)ccc1F
AC50 (Cytochrome P450 3A4): 1.26 µM (inconclusive)

Cc1noc(C)c1COC(=O)c1ccc(-c2nc3ccccc3s2)s1
EC50 [1]: 0.414 µM (active)
EC50 [2]: 0.245 µM (active)
EC50 (H4): 13 µM (active)

CCCn1c(=N)c(S(=O)(=O)c2ccccc2)cc2c(=O)n3ccccc3nc21
IC50 [3]: > 47.1 µM (inactive)
EC50 [4]: > 53 µM (inactive)

COc1cc(C)ccc1OCCOc1ccccc1Cl
EC50 [1]: 32.5 µM (active)
EC50 [2]: 87.3 µM (active)
EC50 (H4): 18.6 µM (active)

CCN(CC)c1ccc(NC(=O)CSc2nc(O)c3c(C)cc(C)nc3n2)cc1
EC50 (cells [5]): > 350 µM (not active)
EC50 (cells [6]): > 350 µM (not active)

Cn1nc(C(F)(F)F)cc1C(=O)NC1CCCCCC1
EC50 (cells [5]): > 350 µM (not active)
EC50 (cells [6]): > 350 µM (not active)

O=C(NCCc1ccccc1)C1CCN(S(=O)(=O)c2ccc(-n3cnnn3)cc2)CC1
EC50 (cells [5]): > 350 µM (not active)
EC50 (cells [6]): > 350 µM (not active)

O=C(NS(=O)(=O)c1ccc2c(c1)OCCO2)c1ccccc1
EC50 (cells [5]): > 350 µM (not active)
EC50 (cells [6]): > 350 µM (not active)

CC1=C(C(=O)OCc2ccccc2)C(c2ccc3ccccc3c2)NC(=O)N1CCCCCC(=O)O (configuration not stated)
AC50 (Cytochrome P450 2C19; read-out: AC50): 39.8 µM (inconclusive)
AC50 (Cytochrome P450 2D6): 39.8 µM (inconclusive)
AC50 (Cytochrome P450 1A2): 20 µM (inconclusive)
AC50 (Cytochrome P450 3A4): 10 µM (inconclusive)

CS(=O)(=O)Nc1nc2n(n1)C(c1ccccc1)CC(c1ccccc1)N2 (configuration not stated)
IC50 [3]: > 47.1 µM (inactive)
EC50 [4]: > 53 µM (inactive)

CC(Sc1nnc(COc2ccc([N+](=O)[O-])cc2)n1C)C(=O)O (configuration not stated)
EC50 (cells [5]): > 350 µM (not active)
EC50 (cells [6]): > 350 µM (not active)

COc1ccccc1C1C(C(=O)c2sc(C)nc2C)=C(O)C(=O)N1CCN1CCOCC1 (configuration not stated)
IC50 [3]: > 47.1 µM (inactive)
EC50 [4]: > 53 µM (inactive)

CCC(C)[C@H](NC(=O)N1CC(=O)Nc2ccccc21)C(=O)Nc1ccccc1C (some centres not stated)
EC50 [1]: > 120 µM (not active)
EC50 [2]: 27.5 µM (active)
EC50 (H4): > 120 µM (not active)

CCc1ccc(N2CC(C)Cn3c2nc2c3c(=O)n(CCN3CCOCC3)c(=O)n2C)cc1 (configuration not stated)
AC50 (Cytochrome P450 3A4): 39.8 µM (inconclusive)
AC50 (Cytochrome P450 2C9): 0.178 µM (inconclusive)

Cc1cc(-c2cccc([N+](=O)[O-])c2)nc2ccc3ccccc3c12
AC50 (Cytochrome P450 2C19; read-out: AC50): 20 µM (inconclusive)
AC50 (Cytochrome P450 3A4): 3.16 µM (inconclusive)

c1ccc(-c2ccc(-c3csnn3)cc2)cc1
EC50 [1]: 0.186 µM (active)
EC50 [2]: 0.326 µM (active)
EC50 (H4): 27.5 µM (active)

Cc1nc2cnc(N3CCNCC3)nc2n(-c2ccccc2)c1=O
AC50 (Cytochrome P450 3A4): 31.6 µM (inconclusive)

COC(=O)C(C)Sc1nc(O)c2cnn(-c3ccc(C)cc3)c2n1 (configuration not stated)
AC50 (Cytochrome P450 2C19; read-out: AC50): 7.94 µM (inconclusive)
AC50 (Cytochrome P450 3A4): 14.1 µM (inconclusive)
AC50 (Cytochrome P450 2C9): 3.55 µM (inconclusive)

O=S(=O)(c1ccc(Cl)cc1)N1c2ccccc2Oc2nc3ccccc3nc21
EC50 [1]: > 120 µM (not active)
EC50 [2]: > 120 µM (not active)
EC50 (H4): > 120 µM (not active)

Cc1cccc(C)c1OC[C@@H](N)C(C)C
AC50 (Cytochrome P450 3A4): 20 µM (inconclusive)

COC(=O)CSc1nc2ccccn2c(=O)c1C=O
EC50 [1]: 28.5 µM (active)
EC50 [2]: 18.5 µM (active)
EC50 (H4): > 120 µM (inconclusive)

CCOC(=O)C1CCN(C(=O)C2CCCN(c3ncnc4c3nc3n4CCCCC3)C2)CC1 (configuration not stated)
EC50 (cells [5]): > 350 µM (not active)
EC50 (cells [6]): > 350 µM (not active)

CC(NC(=O)c1cc(COc2ccc3ncccc3c2)on1)c1ccc(F)cc1 (configuration not stated)
AC50 (INS1): 4.52 µM (active)
AC50 [7]: 2.28 µM (active)
AC50 [8]: 2.86 µM (active)
AC50 [9]: 2.2 µM (active)

O=C(CN1CCCC1)Nc1nc(-c2ccc3c(c2)CCN3C(=O)c2ccccc2F)cs1
EC50 [1]: 12.9 µM (active)
EC50 [2]: 24.4 µM (active)
EC50 (H4): 16.7 µM (inconclusive)

C/C(CCN1CCc2nc(-c3ccccc3)c(-c3ccccc3)cc2C1)=N\OC[C@@H](C)[C@H](OCc1ccccc1)C(C)C
AC50 (Cytochrome P450 3A4): 3.98 µM (inconclusive)

c1ccc(C2=Nc3ccccc3SC2c2nc3ccccc3[nH]2)cc1 (configuration not stated)
EC50 [1]: 0.47 µM (active)
EC50 [2]: 24.1 µM (active)
EC50 (H4): > 120 µM (not active)

Cc1ccnc(NC(=S)NC(=O)/C=C/c2ccco2)c1
EC50 [1]: 0.458 µM (active)
EC50 [2]: 9.64 µM (active)
EC50 (H4): > 120 µM (not active)

O=C(COC(=O)Cc1ccc(S(=O)(=O)N2CCCCC2)s1)Nc1ccc2c(c1)OCO2
EC50 (cells [5]): > 350 µM (not active)
EC50 (cells [6]): > 350 µM (not active)

CC(=O)Nc1c([N+](=O)[O-])cc(C)c(Cl)c1[N+](=O)[O-]
EC50 (cells [5]): > 350 µM (not active)
EC50 (cells [6]): > 350 µM (not active)

O=C(O)c1ccccc1-c1ccccc1C(=O)Nc1ccccc1
AC50 (Cytochrome P450 3A4): 28.2 µM (inconclusive)
AC50 (Cytochrome P450 2C9): 35.5 µM (inconclusive)

O=C(NCCc1csc(-c2cccc(F)c2)n1)c1ccco1
EC50 (cells [5]): > 350 µM (not active)
EC50 (cells [6]): > 350 µM (not active)

Cc1cc(N2CCCC2)ccc1/C=C1\NC(=S)N(C)C1=O
EC50 [1]: 22.1 µM (active)
EC50 [2]: 20 µM (active)
EC50 (H4): 35.5 µM (active)

CS(=O)(=O)c1ccccc1COC(=O)Nc1ccc(Cl)cc1
AC50 (Cytochrome P450 2D6): 10 µM (inconclusive)
AC50 (Cytochrome P450 3A4): 12.6 µM (inconclusive)

CC(=O)C(Sc1nn(C)c(=S)s1)C(=O)Nc1ccccc1 (configuration not stated)
EC50 [1]: 23.9 µM (active)
EC50 [2]: 12.4 µM (active)
EC50 (H4): 14.3 µM (active)

COc1ccc(C2=C(C#N)C(=O)OC2)cc1
AC50 (Cytochrome P450 3A4): 31.6 µM (inconclusive)
AC50 (Cytochrome P450 2C9): 39.8 µM (inconclusive)

CC[C@H]1C2=C3C(CC[C@H]4C(OC)OC[C@](C)([C@@H]34)N(C(=O)OC(C)(C)C)C2)C(CO)C1CO (some centres not stated)
AC50 (Cytochrome P450 2C19): inconclusive
AC50 (Cytochrome P450 1A2): 12.6 µM (inconclusive)
AC50 (Cytochrome P450 3A4): 10 µM (inconclusive)
AC50 (Cytochrome P450 2C9): 25.1 µM (inconclusive)

CCOc1ccc(-c2nnc(N3CCCCC3)c3ccccc23)cc1
AC50 [7]: 14.9 µM (active)
AC50 [8]: > 70 µM (inactive)
AC50 [9]: 8.24 µM (active)

CC(C)(C)c1ccc(OC(=O)N2CCOCC2)cc1
EC50 [1]: 23.7 µM (active)
EC50 [2]: > 120 µM (not active)
EC50 (H4): 1.3 µM (active)

O=C1N/C(=C/c2cccs2)C(=O)N1Cc1ccc(Br)cc1
EC50 (cells [5]): > 350 µM (not active)
EC50 (cells [6]): > 350 µM (not active)

Source: ChEMBL document CHEMBL1201862, “PubChem BioAssay data set” (2004)
